How the values were obtained:
[1] = test system: MRSA; conditions: reported by AOKI and KASHIWAGI; cited from earlier work
[2] = test system: MRSA IID 1677; assay: Proliferation suppression against MRSA in a diluted medium (OD600); type: cell-based, Methicillin-Resistant Staphylococcus Aureus (MRSA); conditions: diluted 1/2.5 LB medium, 37° C., OD 600 nm; complex 0.001%, lysozyme, chitosan and each of mixture 0.0005%; FIG. 1
Description: This test employed MRSA IID 1677, and this microbe strain was cultured in a normal broth medium at 37° C. for 20 hours. The cultured microbial solution was collected by centrifugation (3000 rpm, 10 minutes), suspended with sterilized water, and then diluted with sterilized water so that the optical density would satisfy OD600=1.0. The resultant was diluted 2000 times (corresponding to 10^6 CFU/ml) to prepare a reaction microbial solution.
Each of the LB test medium samples was added with 100 μl of reaction microbial solution and was shake cultured under the condition of 37° C. for 48 hours. Here, the LB test medium samples were prepared using 10 ml of 1/2.5 LB medium added with
(1) 10 ml of sterilized water, (2) 10 ml of the lysozyme-chitosan complex with a concentration of 0.002% (the concentration after addition was 0.001%), (3) 10 ml of lysozyme alone with a concentration of 0.001% (the concentration after addition was 0.0005%), (4) 10 ml of chitosan alone with a concentration of 0.001% (the concentration after addition was 0.0005%), and (5) 10 ml of the mixture of lysozyme and chitosan with a concentration of 0.001% (the concentration of each after addition was 0.0005%).
After that, 3 ml was extracted at time intervals (0, 1, and 2 days), and the optical density was measured at an absorption wavelength of 600 nm. […]

[3] = test system: MRSA; assay: Observation of morphological change in MRSA by electron microscope; type: cell-based, Methicillin-Resistant Staphylococcus Aureus (MRSA); conditions: complex 0.1% by mass, lysozyme 0.05%, chitosan 0.05%, mixture each 0.05%; FIG. 16
Description: First, the morphological change in MRSA was observed by using a scanning electron microscope. This observation with a scanning electron microscope was carried out as follows: osmium coating (4 nm) was performed as the conductive treatment, and a low-acceleration ultra-high resolution scanning electron microscope (SU 9000 manufactured by Hitachi High-Technologies Corporation (accelerating voltage: 1 kV)) was used. In addition, the samples were MRSA added with physiological saline and MRSA added with a lysozyme-chitosan complex with a concentration of 0.2% by mass.
(§1) Next, the morphological change in MRSA was observed by using a transmission electron microscope. This observation with a transmission electron microscope was carried out as follows: the sample was sliced in 50 nm with a diamond knife as the pretreatment and was stained with uranium acetate and lead citrate, and a transmission electron microscope (JEM-1400 manufactured by JEOL Ltd.) was used. In addition, the samples were MRSA added with physiological saline and MRSA added with a lysozyme-chitosan complex with a concentration of 0.2% by mass.
(§2) Observation was carried out with a scanning electron microscope for the morphological changes in MRSA and pseudomonas aeruginosa treated with the lysozyme-chitosan complex, lysozyme alone, chitosan alone, and the mixture of lysozyme and chitosan (treatment time: 2 hours). This observation with a scanning electron microscope was carried out in the same manner as Example 8 described above: osmium coating (4 nm) was performed as the conductive treatment, and a low-acceleration ultra-high resolution scanning electron microscope (SU 9000 manufactured by Hitachi High-Technologies Corporation (accelerating voltage: 1 kV)) was used. In addition, the samples were MRSA or pseudomonas aeruginosa added with physiological saline, a lysozyme-chitosan complex with a concentration of 0.1% by mass, lysozyme of 0.05% by mass, chitosan of 0.05% by mass, and a mixture of lysozyme and chitosan, each with 0.05% by mass.

[4] = test system: Micrococcus luteus bacteria; assay: Heat resistance evaluation by bacteriolytic test; type: physicochemical; conditions: 80° C. for 2 hours; ΔOD at 10 minutes with vs without heating; complex 5%, lysozyme 2.5% aqueous solution; FIG. 6(D)
Description: This test is a bacteriolytic test using Micrococcus luteus bacteria being lysozyme-sensitive bacteria. Note that the bacteriolytic activity is an activity specific to lysozyme. Lysozyme is a protein relatively stable against heat. However, it is known that this activity generally decreases considerably for lysozyme heated at 80° C. for 30 minutes.
This test employed an aqueous solution of the lysozyme-chitosan complex with a concentration of 5%, an aqueous solution of lysozyme with a concentration of 2.5%, and an aqueous solution of the mixture of lysozyme and chitosan with a concentration of […]. In addition, Micrococcus luteus bacteria manufactured by Wako Pure Chemical Industries, Ltd. were used as the use bacteria.
First, 1 g of Micrococcus luteus bacteria was weighed on the day before the test, added to 100 ml of physiological saline, and stirred overnight at 4° C. […]
In an optical density meter, 2800 μl of the test microbial solution was set to record OD (0-1) immediately before the addition of the sample. […] Since OD increased here, the highest value OD (0-2) was recorded.
Timer measurement was started after the addition of the sample to record OD at the time of 2, 4, 6, 8, and 10 minutes passed. Each test was carried out twice, and the average was calculated.
With OD for (0-2) being OD at the time of the start, Δoptical density (AOD) at each point was calculated. […]

[5] = test system: pseudomonas aeruginosa; assay: Observation of morphological change in pseudomonas aeruginosa by electron microscope; type: cell-based; conditions: complex 0.1% by mass, lysozyme 0.05%, chitosan 0.05%, mixture each 0.05%; FIG. 17
Description: as §1
Note that the morphological change in the case of adding the lysozyme-chitosan complex to pseudomonas aeruginosa was also observed using a transmission electron microscope in the same manner as above. […] In other words, the lysozyme-chitosan complex also has a resistant microbe inactivation effect for pseudomonas aeruginosa.
as §2

[6] = test system: MRSA IID 1677; assay: Proliferation suppression against MRSA in a standard medium (colony count method); type: cell-based, Methicillin-Resistant Staphylococcus Aureus (MRSA); conditions: standard TSB medium with phosphate buffer pH 7.0; complex 0.2%, lysozyme, chitosan, each of mixture 0.1%; FIG. 7
Description: This test employed MRSA IID 1677, and this microbe strain was inoculated in 20 ml of a normal broth medium (manufactured by Eiken Chemical Co., Ltd., ‘Eiken’) for overnight shake culture at 37° C. The cultured microbial solution was collected by centrifugation (3000 rpm, 10 minutes), suspended with sterilized water, and then diluted with sterilized water so that the optical density would satisfy OD600=1.0. The resultant was diluted 2000 times (corresponding to 10^6 CFU/ml) to prepare a reaction microbial solution.
Here, the TSB test medium samples were prepared using 10 ml of TSB medium (BD BBL™) added with 200 μl of 1 M phosphate buffer (pH 7.0), followed by further addition of
(1) 10 ml of sterilized water, ([…]), (3) 10 ml of lysozyme alone with a concentration of 0.2% (the concentration after addition was 0.1%), (4) 10 ml of chitosan alone with a concentration of 0.2% (the concentration after addition was 0.1%), and (5) 10 ml of the mixture of lysozyme and chitosan with a concentration of 0.2% (the concentration of each after addition was 0.1%).
After that, 100 μl was extracted and seeded on the MH agar medium, and the number of colonies produced was observed (colony count method). […] Note that the results of FIG. 7 are each the average value of the values obtained by carrying out the colony count method three times.
Note that the results of FIG. 8 are each the average value obtained with two replicate samples.

Compound | generation at which a resistant microbe is observed to produce [1] | proliferation suppression effect against MRSA for 48 hours [2] | morphological change in MRSA, scanning electron microscope, treatment time 2 hours [3] | residual activity (bacteriolytic) after heating treatment [4] [%] | morphological change in pseudomonas aeruginosa, scanning electron microscope, treatment time 2 hours [5] | proliferation suppression effect against MRSA (ratio of colonies produced 6 hours later to control) [6]
CN(C)c1ccc(O)c2c1C[C@H]1C[C@H]3[C@H](N(C)C)C(O)=C(C(N)=O)C(=O)[C@@]3(O)C(O)=C1C2=O [minomycin] | sixth generation | – | – | – | – | –
gentamicin | third generation | – | – | – | – | –
lysozyme [lysozyme alone, reference compound] | – | observed to some extent | no significant morphological change was observed | 73.3 | no significant morphological change was observed | almost no proliferation suppression effect
